Source: US12220440B2, “Drug composition, method for treating infection, disinfecting composition, and drug adjuvant” (priority 2022, dated 2025)
Like-named read-outs stand apart in the source and are kept apart here. Peptide text beside a SMILES is read from it.

Legend:
Type in all cases: cell-based
[1] = tested on: P. aeruginosa PAO1 and PAERC 11.603; assay: Divalent ion MIC-dependency in supplemented MHB
Experimental: In FIGS. 5e and 5f, colistin MICs of P. aeruginosa PAO1 and PAERC 11.603, respectively, are determined in MHB supplemented with different Ca^2+ ion concentrations.
(§1) Accordingly, it is believed that the addition of a chelant; or a chelant for divalent ions; or a divalent cation chelant, may further improve the activity of the drug formulation, method of use/treatment, disinfection composition, etc. of the present invention.

S. Typhimurium PY01 = assay: MIC, colistin-susceptible S. Typhimurium, with and without otilonium bromide; conditions: Salmonella enterica
E. coli J53 = assay: Ca2+ / Mg2+ MIC-dependency in cation-supplemented MHB; conditions: 37° C., 16 hours
Experimental: For FIGS. 5c-5d, colistin-susceptible E. coli J53 is treated with colistin and colistin+Ob as indicated in MHB supplemented with different concentrations of Mg^2+ and Ca^2+ ions. The incubation is conducted at 37° C. for 16 hours.
as §1

[2] = tested on: P. aeruginosa (colistin-susceptible); assay: MIC, colistin-susceptible P. aeruginosa isolates, with and without otilonium bromide; conditions: Pseudomonas aeruginosa

CCC(C)CCCC(=O)N[C@@H](CCN)C(=O)N[C@H](C(=O)N[C@@H](CCN)C(=O)N[C@H]1CCNC(=O)[C@H]([C@@H](C)O)NC(=O)[C@H](CCN)NC(=O)[C@H](CCN)NC(=O)[C@H](CC(C)C)NC(=O)[C@@H](CC(C)C)NC(=O)[C@H](CCN)NC1=O)[C@@H](C)O (stereo partly drawn) [Colistin] (HELM PEPTIDE1{[CCC(C)CCCC(=O)[*:2]].[Dab].T.[Dab].[Dab].[Dab].[dL].L.[Dab].[Dab].T}$PEPTIDE1,PEPTIDE1,5:R3-11:R2$$$V2.0)
2 µg/mL: MIC (S. Typhimurium PY01; colistin alone, read-out: Colistin MIC, Colistin) | MIC ([2]; P. aeruginosa PA01, colistin-susceptible, colistin alone, read-out: Colistin MIC, Colistin) | MIC ([2]; P. aeruginosa PAER 2011-3010, colistin-susceptible, colistin alone, read-out: Colistin MIC, Colistin) | MIC ([2]; P. aeruginosa PAER 2011-3252, colistin-susceptible, colistin alone, read-out: Colistin MIC, Colistin) | MIC ([2]; P. aeruginosa PAER 2012-1527, colistin-susceptible, colistin alone, read-out: Colistin MIC, Colistin) | MIC ([2]; P. aeruginosa PAER 2012-1527, colistin-susceptible, in the presence of 10 ug/ml Ob, read-out: Colistin MIC, Colistin + 10 ug/ml Ob) | MIC ([2]; P. aeruginosa PAERC 10.296, colistin-susceptible, colistin alone, read-out: Colistin MIC, Colistin) | MIC ([2]; P. aeruginosa PAERC 11.2309, colistin-susceptible, colistin alone, read-out: Colistin MIC, Colistin) | MIC ([2]; P. aeruginosa PAERC 11.2309, colistin-susceptible, in the presence of 20 ug/ml Ob, read-out: Colistin MIC, Colistin + 20 ug/ml Ob) | MIC ([2]; P. aeruginosa PAERC 11.236, colistin-susceptible, colistin alone, read-out: Colistin MIC, Colistin) | MIC ([2]; P. aeruginosa PAERC 11.603, colistin-susceptible, colistin alone, read-out: Colistin MIC, Colistin) | MIC ([2]; P. aeruginosa PAERC 12.1478, colistin-susceptible, colistin alone, read-out: Colistin MIC, Colistin)
1 µg/mL: MIC ([2]; P. aeruginosa PAER 2011-3010, colistin-susceptible, in the presence of 10 ug/ml Ob, read-out: Colistin MIC, Colistin + 10 ug/ml Ob)
increase the MIC: effect of supplemented Ca2+ and Mg2+ on MIC [1] | effect of supplemented Ca2+ and Mg2+ on MIC (E. coli J53)
0.25 µg/mL: MIC ([2]; P. aeruginosa PA01, colistin-susceptible, in the presence of 20 ug/ml Ob, read-out: Colistin MIC, Colistin + 20 ug/ml Ob) | MIC ([2]; P. aeruginosa PAER 2011-3010, colistin-susceptible, in the presence of 20 ug/ml Ob, read-out: Colistin MIC, Colistin + 20 ug/ml Ob) | MIC ([2]; P. aeruginosa PAER 2011-3252, colistin-susceptible, in the presence of 20 ug/ml Ob, read-out: Colistin MIC, Colistin + 20 ug/ml Ob) | MIC ([2]; P. aeruginosa PAERC 11.603, colistin-susceptible, in the presence of 20 ug/ml Ob, read-out: Colistin MIC, Colistin + 20 ug/ml Ob)
0.03 µg/mL: MIC (S. Typhimurium PY01; in the presence of 20 ug/ml Ob, read-out: Colistin MIC, Colistin + 20 ug/ml Ob)
0.5 µg/mL: MIC ([2]; P. aeruginosa PA01, colistin-susceptible, in the presence of 10 ug/ml Ob, read-out: Colistin MIC, Colistin + 10 ug/ml Ob) | MIC ([2]; P. aeruginosa PAER 2011-3252, colistin-susceptible, in the presence of 10 ug/ml Ob, read-out: Colistin MIC, Colistin + 10 ug/ml Ob) | MIC ([2]; P. aeruginosa PAER 2012-1527, colistin-susceptible, in the presence of 20 ug/ml Ob, read-out: Colistin MIC, Colistin + 20 ug/ml Ob) | MIC ([2]; P. aeruginosa PAERC 11.2309, colistin-susceptible, in the presence of 10 ug/ml Ob, read-out: Colistin MIC, Colistin + 10 ug/ml Ob) | MIC ([2]; P. aeruginosa PAERC 11.236, colistin-susceptible, in the presence of 10 ug/ml Ob, read-out: Colistin MIC, Colistin + 10 ug/ml Ob) | MIC ([2]; P. aeruginosa PAERC 11.236, colistin-susceptible, in the presence of 20 ug/ml Ob, read-out: Colistin MIC, Colistin + 20 ug/ml Ob) | MIC ([2]; P. aeruginosa PAERC 11.603, colistin-susceptible, in the presence of 10 ug/ml Ob, read-out: Colistin MIC, Colistin + 10 ug/ml Ob) | MIC ([2]; P. aeruginosa PAERC 12.1478, colistin-susceptible, in the presence of 10 ug/ml Ob, read-out: Colistin MIC, Colistin + 10 ug/ml Ob)
0.125 µg/mL: MIC (S. Typhimurium PY01; in the presence of 10 ug/ml Ob, read-out: Colistin MIC, Colistin + 10 ug/ml Ob) | MIC ([2]; P. aeruginosa PAERC 12.1478, colistin-susceptible, in the presence of 20 ug/ml Ob, read-out: Colistin MIC, Colistin + 20 ug/ml Ob)
0.0625 µg/mL: MIC ([2]; P. aeruginosa PAERC 10.296, colistin-susceptible, in the presence of 10 ug/ml Ob, read-out: Colistin MIC, Colistin + 10 ug/ml Ob) | MIC ([2]; P. aeruginosa PAERC 10.296, colistin-susceptible, in the presence of 20 ug/ml Ob, read-out: Colistin MIC, Colistin + 20 ug/ml Ob)
